Experimental data reported in PMC2673211, “Nitric oxide activates ATP-sensitive potassium channels in mammalian sensory neurons: action by direct S-nitrosylation” (Molecular Pain, 2009).

What was measured:
[1] = molecular target: T1, KATP channels in large DRG neurons (Rattus norvegicus, UniProt P70673+Q09429); assay: Cell-attached single-channel patch-clamp recording of KATP channel activity (NPo); assay type: cell-based; conditions: for NPo 10 min after SNAP following pretreatment with KT 5823: KT 5823 1 μM for 20 min; for NPo 10 min after SNAP following pretreatment with KT 5823 / NPo 10 min after SNAP following pretreatment with ODQ: then SNAP 100 μM; for baseline NPo after pretreatment with L-NAME: L-NAME 100 μM for 20 minutes; for NPo 10 min after SNAP following pretreatment with ODQ: ODQ 10 μM for 20 min; for NPo, DNP-induced channel opening: DNP 100 μM bath application, -60 mV
T1 construct: native KATP channels in large DRG neurons; endogenous in cells; host or cells: acutely dissociated large-diameter neurons from rat L4/L5 dorsal root ganglia (sham-operated or spinal nerve ligated animals)
T1 sequence (Q09429 whole entry): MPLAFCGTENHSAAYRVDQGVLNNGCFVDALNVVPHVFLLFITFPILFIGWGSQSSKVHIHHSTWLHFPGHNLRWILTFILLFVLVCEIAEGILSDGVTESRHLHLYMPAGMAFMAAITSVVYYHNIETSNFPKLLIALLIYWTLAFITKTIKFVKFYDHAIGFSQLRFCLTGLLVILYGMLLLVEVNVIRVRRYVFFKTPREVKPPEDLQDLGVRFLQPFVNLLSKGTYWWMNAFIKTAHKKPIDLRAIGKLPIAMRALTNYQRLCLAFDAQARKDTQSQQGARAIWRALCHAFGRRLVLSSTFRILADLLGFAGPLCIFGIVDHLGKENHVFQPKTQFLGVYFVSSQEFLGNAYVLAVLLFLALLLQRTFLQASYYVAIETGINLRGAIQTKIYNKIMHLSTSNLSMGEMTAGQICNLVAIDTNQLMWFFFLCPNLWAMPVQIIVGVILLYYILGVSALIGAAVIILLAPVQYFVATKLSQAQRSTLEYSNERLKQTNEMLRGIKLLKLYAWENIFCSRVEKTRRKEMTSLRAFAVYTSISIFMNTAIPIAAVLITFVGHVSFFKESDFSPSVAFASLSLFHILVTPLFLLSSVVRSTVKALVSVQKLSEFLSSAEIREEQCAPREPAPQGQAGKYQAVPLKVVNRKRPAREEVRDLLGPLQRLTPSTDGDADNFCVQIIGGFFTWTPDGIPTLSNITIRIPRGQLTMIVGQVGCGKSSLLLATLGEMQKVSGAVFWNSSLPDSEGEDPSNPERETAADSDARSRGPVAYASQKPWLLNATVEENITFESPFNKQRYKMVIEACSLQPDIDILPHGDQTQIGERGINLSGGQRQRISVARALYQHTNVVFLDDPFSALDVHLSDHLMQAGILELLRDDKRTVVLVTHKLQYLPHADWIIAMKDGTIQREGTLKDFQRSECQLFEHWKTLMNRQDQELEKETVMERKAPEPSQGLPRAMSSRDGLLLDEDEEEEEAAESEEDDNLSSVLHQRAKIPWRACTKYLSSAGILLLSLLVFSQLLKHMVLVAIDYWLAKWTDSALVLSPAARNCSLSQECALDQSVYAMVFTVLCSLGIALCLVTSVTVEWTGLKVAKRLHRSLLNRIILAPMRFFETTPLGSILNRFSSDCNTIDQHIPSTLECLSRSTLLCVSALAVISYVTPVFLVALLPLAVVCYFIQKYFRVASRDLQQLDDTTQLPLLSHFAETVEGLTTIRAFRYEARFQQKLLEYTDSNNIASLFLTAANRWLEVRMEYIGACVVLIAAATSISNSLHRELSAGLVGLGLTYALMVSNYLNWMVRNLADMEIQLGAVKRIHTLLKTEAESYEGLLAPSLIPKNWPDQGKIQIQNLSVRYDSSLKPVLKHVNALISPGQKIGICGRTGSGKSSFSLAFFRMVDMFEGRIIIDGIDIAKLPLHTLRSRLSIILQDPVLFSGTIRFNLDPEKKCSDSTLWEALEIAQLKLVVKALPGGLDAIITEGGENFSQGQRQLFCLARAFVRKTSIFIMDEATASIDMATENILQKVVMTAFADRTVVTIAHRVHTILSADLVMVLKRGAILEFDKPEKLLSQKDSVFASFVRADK
T1 sequence (P70673 whole entry): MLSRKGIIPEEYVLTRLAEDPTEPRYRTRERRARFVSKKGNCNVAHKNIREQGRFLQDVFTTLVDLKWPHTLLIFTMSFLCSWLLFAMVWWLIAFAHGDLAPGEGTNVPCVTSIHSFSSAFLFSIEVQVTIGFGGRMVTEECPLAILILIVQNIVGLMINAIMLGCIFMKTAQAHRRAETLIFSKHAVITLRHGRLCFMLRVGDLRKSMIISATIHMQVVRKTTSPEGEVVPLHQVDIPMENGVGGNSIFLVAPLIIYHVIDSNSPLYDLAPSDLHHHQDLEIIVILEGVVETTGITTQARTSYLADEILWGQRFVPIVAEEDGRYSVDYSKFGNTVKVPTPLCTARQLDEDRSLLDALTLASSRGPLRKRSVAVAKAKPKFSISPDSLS
Source text: (§1) We harvested control (L4 and L5) or axotomized (L5) ganglia, from control (SS) or hyperalgesic rats (SNL) respectively, between the 17th and 28th postoperative days. We sacrificed animals by decapitation under deep isoflurane anesthesia, excised ganglia through a lumbar incision, and at the same time confirmed accuracy of initial surgery.
For patch-clamp recordings, we placed excised DRG into separate 35 mm Petri dishes containing cold, oxygenated, Hanks Balanced Salt Solution (Gibko, Invitrogen, Grand Islan, NY), and minced them with iris scissors. We dissociated ganglia enzymatically in a solution containing 0.25 ml 0.05% w:v liberase blendzyme 2 (Roche Diagnostics Corp., Indianapolis, IN) and 0.25 ml DMEM/F12 with glutaMAX (Dulbecco's modified Eagle's medium F12; Gibco, Invitrogen Corp., Carlsbad, CA) in an incubator at 37°C for 30 min. […] Finally, we plated cells onto poly-l-lysine-coated 12-mm glass coverslips (Deutsche Spiegelglas; Carolina Biologic Supply, Burlington, NC), kept them in a humidified incubator at 37°C with 95% air and 5% CO2, and studied them within 3–8 h of dissociation.
We visualized plated neurons using an inverted Nikon Diaphot 300 microscope with Hoffman modulation optic system. […] Large neuronal somata, roughly correspond to large, myelinated Aβ fibers.
(§2) We recorded current passing through single channels in inside-out or cell-attached patch configurations. In cell-attached patches, both bath and pipette (extracellular) solutions were composed of the following: 140 mM KCl, 10 mM HEPES, 5.5 mM dextrose, and 1 mM EGTA. In inside-out patches, the bath (intracellular) solution contained 140 mM KCl, 1.2 mM MgCl2, 10 mM HEPES, 1.5 mM EGTA and 5.5 mM dextrose. The pipette (extracellular) solution was of the same composition as that used in cell-attached recordings. The pH of all solutions was adjusted to 7.4 with KOH. Osmolality was adjusted approximately to 300 mOsm/l by adding sucrose if necessary. We pulled patch micropipettes from borosilicate glass capillaries using a Flaming/Brown micropipette puller, model P-97 (Sutter, San Rafael, CA) and flame polished them with a microforge polisher (Narishige, Tokyo, Japan) prior to use. Their resistance ranged between 3 and 6 MΩ when filled with the internal solution, and placed into the recording solutions.
Sampling frequency of single-channel data was 5 KHz with a low-pass filter (1 KHz). […] We applied a conventional 50% current amplitude threshold level criterion to determine open events. Channel open probability (Po) was determined from the ratios of the area under the peaks in the amplitude histograms fitted by a Gaussian distribution. We calculated channel activity as NPo (where N is the number of observed channels in the patch) from data samples of either 30 s (in inside-out recordings), or 60 s (in cell-attached recordings), in the steady state. In inside-out recordings, NPo of the KATP channels was normalized to the baseline NPo value obtained before test drugs at bathing solution without ATP (indicating relative channel activity).

[2] = molecular target: T1, KATP channels in large DRG neurons; assay: Excised inside-out (cell-free) patch-clamp recording of KATP channel activity; assay type: biochemical
Source text: as §1
For patch-clamp recordings, we placed excised DRG into separate 35 mm Petri dishes containing cold, oxygenated, Hanks Balanced Salt Solution (Gibko, Invitrogen, Grand Islan, NY), and minced them with iris scissors. We dissociated ganglia enzymatically in a solution containing 0.25 ml 0.05% w:v liberase blendzyme 2 (Roche Diagnostics Corp., Indianapolis, IN) and 0.25 ml DMEM/F12 with glutaMAX (Dulbecco's modified Eagle's medium F12; Gibco, Invitrogen Corp., Carlsbad, CA) in an incubator at 37°C for 30 min. We then removed the supernatant after centrifugation and re-incubated cells at 37°C for another 30 min in 0.2 ml 0.0625% trypsin (Sigma, St. Louis, MO) and 0.0125% deoxyribonuclease 1 (150,000 U, Sigma, St. Louis, MO) in 0.25 ml DMEM. We then isolated cells by centrifugation (600 rpm for 5 min) after adding 0.25 ml trypsin inhibitor 0.1% w:v (Sigma St. Louis, MO), and re-suspended them in a culture medium consisting of 0.5 mM glutamine, 0.02 mg/ml gentamicin (Gibco, Invitrogen Corp., Carlsbad, CA), 100 ng/ml nerve growth factor 7S (Alomone Labs, Jerusalem, Israel), 2% (vol/vol) B-27 supplement (Gibco, Invitrogen Corp., Carlsbad, CA), and 98% (vol/vol) neural basal medium A (Gibco, Invitrogen Corp., Carlsbad, CA). Finally, we plated cells onto poly-l-lysine-coated 12-mm glass coverslips (Deutsche Spiegelglas; Carolina Biologic Supply, Burlington, NC), kept them in a humidified incubator at 37°C with 95% air and 5% CO2, and studied them within 3–8 h of dissociation.
We visualized plated neurons using an inverted Nikon Diaphot 300 microscope with Hoffman modulation optic system. We selected only large diameter neuronal somata (≥ 40 μm in diameter) because we have previously shown that only these develop KATP current alterations, as well as changes indicative of increased excitability after painful-like nerve injury by SNL [74]. Large neuronal somata, roughly correspond to large, myelinated Aβ fibers.
as §2
(§3) We recorded single channel currents at room temperature (20–25°C) using an Axon CNS Multiclamp 700B amplifier, digitized them using an analog-to-digital converter (Axon CNS DigiData 1440A; Axon Instruments, Foster, CA), and stored them into a PC. Sampling frequency of single-channel data was 5 KHz with a low-pass filter (1 KHz). We used pClamp version 10.2 software (Axon Instruments) for data acquisition and analysis. We applied a conventional 50% current amplitude threshold level criterion to determine open events. Channel open probability (Po) was determined from the ratios of the area under the peaks in the amplitude histograms fitted by a Gaussian distribution. […]

[3] = molecular target: T2, wild-type SUR1/Kir6.2 channels (Rattus norvegicus, UniProt P70673+Q09429); assay: Inside-out patch recording of recombinant wild-type channels expressed in COS7 cells; assay type: biochemical
T2 construct: A full-length Kir cDNA and a full-length SUR cDNA were subcloned into the mammalian expression vector; expressed in transfected cells; host or cells: COS7 cells (KATP channel-deficient), pcDNA3.1(-) vectors, GFP cDNA co-transfected as a separate reporter
T2 sequence (Q09429 whole entry): as the sequence (Q09429 whole entry) above
T2 sequence (P70673 whole entry): as the sequence (P70673 whole entry) above
Method: (§4) KATP channel-deficient COS7 cells were plated at a density of 3 × 10^5/dish (35 mm in diameter) and cultured in Dulbecco's modified Eagle's medium supplemented with 10% fetal calf serum. Rat Kir6.2 (GenBank X97041) and rat SUR1 (GenBank X97279) cDNAs were used for expression study. A truncated form of Kir6.2 lacking the last 36 amino acids at the C-terminus was obtained by polymerase chain reaction amplification. Polymerase chain reaction products were cloned into the pCR3.1 vector by using the TA cloning system (Invitrogen Corp., Carlsbad, CA, USA) and then cloned into the pcDNA3.1 (-) vector (Invitrogen Corp.) for mammalian expression. Point mutation of cysteine at position 717 (C717), C806, C1378, C1446, and C1491 within SUR1 to serine (C717S, C806S, C1378S, C1446S, and C1491S) was performed by using the Site-Directed Mutagenesis system (Invitrogen Corp.). All cDNA products were sequenced by using the BigDye terminator cycle sequencing kit and an ABI PRISM 377 DNA sequencer (Applied Biosystems, Foster City, CA) to confirm the sequence. A full-length Kir cDNA and a full-length SUR cDNA were subcloned into the mammalian expression vector pcDNA3.1 (-). For electrophysiological recordings, either wild-type or mutated pcDNA3.1 (-) Kir6.2 alone (1 μg), or pcDNA3.1 (-) Kir6.2 (1 μg) plus pcDNA3.1 (-) SUR1 (3 μg) were transfected into COS7 cells with green fluorescent protein cDNA as a reporter gene by using lipofectamine and Opti-MEN 1 reagents (Life Technologies Inc., Rockville, MD) according to the manufacturer's instructions. After transfection, cells were cultured at 37°C with 95% air and 5% CO2 for 48–72 h before being subjected to electrophysiological recordings.
as §2
as §3, with “We applied a conventional 50% current amplitude threshold level criterion to determine open events.” left out, “distribution. We calculated channel activity as NPo (where N is the number of observed channels in the patch) from data samples of either 30 s (in inside-out recordings), or 60 s (in cell-attached recordings), in the steady state.” for “distribution.”

[4] = molecular target: T3, SUR1-C717S/Kir6.2 channels (Rattus norvegicus, UniProt P70673+Q09429, C717S); assay: Inside-out patch recording of mutated channels expressed in COS7 cells; assay type: biochemical; conditions: DTT 5 mM; n = 7
T3 construct: A full-length Kir cDNA and a full-length SUR cDNA were subcloned into the mammalian expression vector; expressed in transfected cells; host or cells: COS7 cells, pcDNA3.1(-) vectors, GFP cDNA co-transfected as a separate reporter
T3 sequence (Q09429 whole entry C717S): as the sequence (Q09429 whole entry) above, with C717S counted along it
T3 sequence (P70673 whole entry): as the sequence (P70673 whole entry) above
Method: as §4, §2
as §3, with “We applied a conventional 50% current amplitude threshold level criterion to determine open events.” left out, “distribution. We calculated channel activity as NPo (where N is the number of observed channels in the patch) from data samples of either 30 s (in inside-out recordings), or 60 s (in cell-attached recordings), in the steady state.” for “distribution.”

[5] = agent alone, vs. baseline/control

COC(=O)[C@@]1(OC)C[C@H]2O[C@]1(C)n1c3ccccc3c3c4c(c5c6ccccc6n2c5c31)C(=O)N(C)C4 [KT 5823]
effect of pretreatment on 8-Br-cGMP-induced KATP channel activation ([1]; KT 5823, SS and SNL neurons): significantly reduces
NPo 10 min after SNAP following pretreatment with KT 5823 ([1]; SNL neurons, n = 6): 0.26 ± 0.19
NPo 10 min after SNAP following pretreatment with KT 5823 ([1]; SS neurons, n = 5): 0.14 ± 0.17
direct effect on KATP channels in inside-out patches [2, 5]: neither ODQ nor KT 5823 had any direct effect

CCCOc1ccccc1-c1nc2nn[nH]c2c(=O)[nH]1 [zaprinast]
effect on KATP channel activity ([1]; zaprinast, control and SNL neurons, data not shown): no effect

O[C@@H](CS)[C@@H](O)CS (racemic) [DTT, di-thiothreitol]
effect on SNAP-induced KATP channel activation ([2]; SS neurons, DTT 5 mM after SNAP 100 μM, 1 mM [ATP]i, n = 7): completely reversed
direct effect on KATP channels in inside-out patches [2, 5]: no direct effect
effect on SNAP-activated currents ([3]; DTT 5 mM after SNAP 1 mM): almost completely suppressed
effect on SNAP-induced channel activation [4]: reversed

CCN1C(=O)C=CC1=O [NEM, N-ethylmaleimide]
effect on basal channel activity ([2]; NEM 5 mM, 1 mM [ATP]i, n = 6): significantly decreased
effect on the activating effect of SNAP on KATP channels ([2]; SS neurons, NEM 5 mM before SNAP 100 μM, 1 mM [ATP]i, n = 6): completely eliminated

nitric oxide [NO]
potency of direct activation of cloned channels relative to native channels (less potent) ([3]; cloned SUR1/Kir6.2 in COS7 cells vs. native channels in DRG neurons): approximately 3 fold

Nc1nc2c(nc(Br)n2[C@@H]2O[C@@H]3COP(=O)([O-])O[C@H]3[C@H]2O)c(=O)[nH]1.[Na+] [8-Br-cGMP, 8-bromo-cGMP sodium salt]
time to steady-state activation after exposure ([1]; 8-Br-cGMP 100 μM): 2 to 3 min
effect when applied after SNAP-induced steady-state activation ([1]; 8-Br-cGMP at least 5 min after SNAP 100 μM, SS and SNL neurons, n = 5 each): additional further channel opening
NPo 5 min after application of 8-Br-cGMP ([1]; SNL neurons, 8-Br-cGMP 100 μM, n = 7): 0.17 ± 0.06
NPo 5 min after application of 8-Br-cGMP ([1]; SS neurons, 8-Br-cGMP 100 μM, n = 8): 0.22 ± 0.08

COC(=O)[C@@H](N)CCCNC(N)=N[N+](=O)[O-] [L-NAME, NG-nitro-L-arginine methyl ester]
baseline NPo after pretreatment with L-NAME ([1]; SNL neurons, n = 7): 0.06 ± 0.04
baseline NPo after pretreatment with L-NAME ([1]; SS neurons, n = 7): 0.114 ± 0.06
direct effect on KATP channels in inside-out patches [2, 5]: no direct effect

O=c1onc2cnc3ccccc3n12 [ODQ, 1H-[1,2, 4] oxadiazolo [4,3-a] quinoxalin-1-one]
NPo 10 min after SNAP following pretreatment with ODQ ([1]; SNL neurons, n = 6): 0.27 ± 0.16
NPo 10 min after SNAP following pretreatment with ODQ ([1]; SS neurons, n = 6): 0.25 ± 0.09
direct effect on KATP channels in inside-out patches [2, 5]: neither ODQ nor KT 5823 had any direct effect

O=[N+]([O-])c1ccc(O)c([N+](=O)[O-])c1 [DNP, 2,4-Dinitrophenol]
NPo, DNP-induced channel opening ([1]; SNL neurons, n = 8): 0.208 ± 0.16
NPo, DNP-induced channel opening ([1]; SS neurons, n = 8): 0.442 ± 0.26
direct effect on KATP channels in inside-out patches ([2]; DNP 100 μM, SS and SNL, vs. baseline): no direct effect
